Experimental data as given in patent US8592600B2, “Solid state forms of racemic ilaprazole” (Il Yang Pharmaceutical Company, Ltd., priority 2006, dated 2013).
“Also recorded” adds a separate entry of the source.

Legend:
[1] = Dynamic Vapor Sorption/Desorption (DVS); type: physicochemical; details: for weight loss at 5% RH / weight loss from 95 to 5% RH / weight gain from 5 to 95% RH: DVS isotherm; for weight loss from 95 to 5% RH: desorption; for weight gain from 5 to 95% RH: sorption
Description: Dynamic Vapor Sorption/Desorption (DVS): Data were collected on a VTI SGA-100 moisture balance system. For sorption isotherms, a sorption range of 5 to 95% relative humidity (RH) and a desorption range of 95 to 5% RH in 10% RH increments were used for analysis. The samples were not dried prior to analysis. Equilibrium criteria used for analysis were less than 0.0100% weight change in 5 minutes with a maximum equilibration time of 3 hours if the weight criterion was not met. Data were not corrected for the initial moisture content of the samples.

[2] = Solubility of racemic ilaprazole forms in various ethanol solutions (100-50% ethanol) with various apparent pHs, 1 hour; type: physicochemical; details: comparison between Forms A, B, F
Description: The solubility of racemic ilaprazole, Forms A, B, and F, were analyzed by exposing them to various ethanol solutions having various pHs for 1 hour. Duplicate analysis was performed for each sample on a second day. The solubility in 100% ethanol (with no pH adjustment) is shown in the first column. Various other aqueous solutions (87.5%, 75%, 62.5%, and 50% ethanol) with varying apparent pHs (7, 8, 9, 10, and 11) were also evaluated. All of the values below are the average of two duplicate preparations analyzed on different days.

[3] = Solid state stability of the crystalline forms; type: physicochemical
[4] = Bioavailability study of ilaprazole from 40-mg delayed-release tablets, plasma pharmacokinetics; type: in vivo, human; details: for AUC lower than Form A, point estimate / Cmax lower than Form A, point estimate: ANOVA point estimate, relative to 40-mg tablet as Form A; for half-life, relative: humans, Forms A, B, F compared; for mean AUC∞ lower than value observed for Form A / mean Cmax lower than value observed for Form A: mean values; for mean AUC∞ lower than value observed for Form A / mean Cmax lower than value observed for Form A / mean AUC, rank among forms / mean Cmax, rank among forms / mean apparent oral clearance, rank among forms / mean apparent volume of distribution, rank among forms: single 40 mg oral dose; for t1/2z, harmonic mean / tlag, Mean / tmax, Mean: single 5 mg oral dose (table title; text: 40 mg delayed-release tablet); for lower bound of 90% confidence interval for ratio of central values, AUC / lower bound of 90% confidence interval for ratio of central values, AUC∞ / lower bound of 90% confidence interval for ratio of central values, Cmax: relative to Form A (Regimen A), bioequivalence limit 0.80; for AUCt, Point Estimate (ratio of central values) vs. Regimen A / AUC∞, Point Estimate (ratio of central values) vs. Regimen A / Cmax, Point Estimate (ratio of central values) vs. Regimen A: relative to Regimen A (Form A), Regimen B = Form B, Regimen C = Form F, single 40-mg delayed-release tablet
Excerpt: The bioavailability of ilaprazole from delayed-release tablets containing racemic ilaprazole, Form A, F, and B. This study were to assessed the bioavailability of ilaprazole from ilaprazole 40-mg delayed-release tablets manufactured as described in Example 8.
The subjects were randomly assigned in equal numbers to one of three sequence groups (Table 32).
Subjects received all regimens in a crossover fashion, according to the sequence group to which they were randomized. For each period, confinement began on Day 1 and ended on Day 2 after all procedures had been completed. There was a washout interval of at least 5 days between the doses of each period. Each subject received 3 doses of racemic ilaprazole 40 mg, each dose administered with 240 mL of water. On Day 1 of each period, subjects received the regimen to which they had been assigned at approximately 0800 hours. Subjects were fasted for 10 hours prior to dosing and remained fasted until 4 hours postdose when a standardized lunch was served.
Ilaprazole, ilaprazole sulfide and ilaprazole sulfone plasma concentrations were determined from 3 mL blood samples collected starting on Day 1 at 0 hour (predose), and 0.5, 1, 1.5, 2, 3, 4, 5, 6, 8, 10, 12, 14, 16, 20, 24, 28 and 32 hours postdose in each period. Plasma concentrations of ilaprazole were determined using a validated LC-MS/MS method at PPD (Middleton, Wis.). The lower limit of quantitation (LLOQ) for ilaprazole and its metabolites was 5.00 ng/mL with a 0.100 mL aliquot of plasma.
Pharmacokinetic parameters for ilaprazole were estimated using standard noncompartmental methods with WinNonlin Professional Version 4.1 (Pharsight Co., Mountain View, Calif.).
Pharmacokinetic endpoints included time to reach the first quantifiable concentration (tlag), time to reach the peak concentration (tmax), the peak plasma concentration (Cmax), area under the plasma concentration versus time curve (AUC) from time zero to the last quantifiable concentration (AUCt) and to infinity (AUC∞), terminal-phase elimination half-life (t1/2z), apparent oral clearance (CL/F) and apparent volume of distribution (Vz/F).
For ilaprazole tlag, tmax, and the natural logarithms of Cmax and AUCs, an analyses of variance (ANOVA) model was fitted that included fixed effects of sequence, period, and crystal form as well as a random effect of subject nested within sequence. Pairwise comparisons between racemic ilaprazole, Forms B or F and Form A, were conducted. Ninety percent confidence intervals for relative bioavailability between regimens were computed.

[5] = Dissolution rate of delayed release tablets, 40 mg (USP <711>, Delayed Release Method A); type: physicochemical; details: 40 mg tablet, dissolution buffer
Description: Delayed release tablets containing 40 mg racemic ilaprazole, Form A, B, or F, were prepared and the dissolution rates of the tablets studied. The tablets were identical, with the exception of the crystalline form of ilaprazole. The qualitative and quantitative compositions of racemic ilaprazole delayed release tablets, 40 mg (inclusive of the compositions made using Forms A, B, and F) are described in Table 30. The dissolution rate procedure was modified to be consistent with USP <711>, Delayed Release Method A and to change the UV detection wavelength in the acid stage of the test. For the acid stage, a wavelength of 340 nm was used, and for the buffer stage, a wavelength of 306 nm was used. The desired dissolution profile was Q=70% in 60 minutes.

gastric acid = assay: Phase 1 and Phase 2 clinical studies conducted with ilaprazole; type: in vivo, human
[6] = plasma ilaprazole, healthy adult subjects, fasted
[7] = plasma ilaprazole, healthy adult subjects, single 40 mg oral dose (table title; text: 40 mg delayed-release tablet), fasted
[8] = human, plasma, po, 40 mg, plasma ilaprazole, healthy adult subjects, single 40 mg oral dose (table title; text: 40 mg delayed-release tablet), fasted

Row | SMILES | weight loss at 5% RH [1] [%] | weight loss from 95 to 5% RH [1] [%] | weight gain from 5 to 95% RH [1] [%] | relative solubility in aqueous solutions/solvents [2] | hygroscopicity [1] | AUC lower than Form A, point estimate [4] | Cmax lower than Form A, point estimate [4] | half-life, relative [4] | mean AUC∞ lower than value observed for Form A [4] [%] | mean Cmax lower than value observed for Form A [4] | t1/2z, harmonic mean [4, 6] | tlag, Mean [4, 6] [h] | tmax, Mean [4, 6] [h] | AUCt, Mean [4, 7] [µg·h/mL] | AUC∞, Mean [4, 7] [µg·h/mL] | CL/F, Mean [4, 7] [L/h] | Cmax, Mean [4, 7] [µg/mL] | t1/2z, arithmetic mean [4, 7] [h] | lower bound of 90% confidence interval for ratio of central values, AUC [4] | lower bound of 90% confidence interval for ratio of central values, AUC∞ [4] | also measured
1 | COc1ccnc(C[S+]([O-])c2nc3cc(-n4cccc4)ccc3[nH]2)c1C (racemic) [Form I, 2[[(4-methoxy-3-methyl-2-pyridinyl)-methyl]sulfinyl]-5-(1H-pyrrol-1-yl) 1H-Benzimidazole] | 0.1 | 4.2 | 4.2 |  |  |  |  |  |  |  |  |  |  |  |  |  |  |  |  |  | 
2 | COc1ccnc(C[S+]([O-])c2nc3cc(-n4cccc4)ccc3[nH]2)c1C (racemic) [Form B, 2[[(4-methoxy-3-methyl-2-pyridinyl)-methyl]sulfinyl]-5-(1H-pyrrol-1-yl) 1H-Benzimidazole] | 0.03 | 0.00 | 0.04 | A<F<B; also recorded: more soluble in aqueous solvents than Form A | not hygroscopic | ~24% | approximately 17% | greater half-life than Form A | ~25 | approximately 20% | (7.76) h | 1.22 | 3.50 | 3.8125 | 4.08799 | 11.70 | 0.52251 | 9.48 | < 0.80 | < 0.80 | long term stability or shelf life [3]: good long term stability or shelf life; lower bound of 90% confidence interval for ratio of central values, Cmax [4]: < 0.80; AUCt, Point Estimate (ratio of central values) vs. Regimen A [4]: 0.7630; AUC∞, Point Estimate (ratio of central values) vs. Regimen A [4]: 0.7609; Cmax, Point Estimate (ratio of central values) vs. Regimen A [4]: 0.8292; mean AUC, rank among forms [4]: lowest; mean Cmax, rank among forms [4]: lowest; mean apparent oral clearance, rank among forms [4]: highest; mean apparent volume of distribution, rank among forms [4]: highest; dissolution of delayed release tablet, relative [5]: relatively slower dissolution profile; also recorded: slower to wet and dissolve in the dissolution buffer than Form A and Form F
3 | COc1ccnc(C[S+]([O-])c2nc3cc(-n4cccc4)ccc3[nH]2)c1C (racemic) [Form A, 2[[(4-methoxy-3-methyl-2-pyridinyl)-methyl]sulfinyl]-5-(1H-pyrrol-1-yl) 1H-Benzimidazole] | 0.06 | 0.13 | 0.10 | A<F<B; also recorded: least soluble in aqueous solutions | not hygroscopic |  |  |  |  |  | (6.95) h | 1.16 |  |  |  | 9.34 |  | 8.89 |  |  | thermodynamic stability among crystalline forms [3]: most thermodynamically stable; AUC(0-inf) [4, 8]: 5.45 µg·h/mL; AUC(0-t) [4, 8]: 5.07 µg·h/mL; Cmax [4, 8]: 0.652 µg/mL; Tmax [4, 8]: 4.14 h; Vd/F ([4]; human, plasma, po, 40 mg, plasma ilaprazole, healthy adult subjects, single 40 mg oral dose (table title; text: 40 mg delayed-release tablet), fasted, read-out: Vz/F, Mean): 112 L; mean AUC, rank among forms [4]: highest; mean Cmax, rank among forms [4]: highest; mean apparent oral clearance, rank among forms [4]: lowest; mean apparent volume of distribution, rank among forms [4]: lowest
4 | COc1ccnc(C[S+]([O-])c2nc3cc(-n4cccc4)ccc3[nH]2)c1C (stereo not shown) [ilaprazole, 2[[(4-methoxy-3-methyl-2-pyridinyl)-methyl]sulfinyl]-5-(1H-pyrrol-1-yl) 1H-Benzimidazole] |  |  |  |  |  |  |  |  |  |  |  |  |  |  |  |  |  |  |  |  | suppression of gastric acid (gastric acid; Phase 1 clinical studies, at the doses studied): suppression of gastric acid occurs over a 24-hour period; healing of acid-related gastric and duodenal ulcers (gastric acid; Phase 2 clinical studies): promoted rapid healing; symptomatic relief (gastric acid; Phase 2 clinical studies, patients with gastric-acid related disorders): provided symptomatic relief
5 | COc1ccnc(C[S+]([O-])c2nc3cc(-n4cccc4)ccc3[nH]2)c1C (racemic) [Form F, 2[[(4-methoxy-3-methyl-2-pyridinyl)-methyl]sulfinyl]-5-(1H-pyrrol-1-yl) 1H-Benzimidazole] | 0.04 | 1.33 | 1.05 | A<F<B; also recorded: more soluble in aqueous solvents than Form A | slightly hygroscopic | 15-17% | approximately 15% | longest half-life | ~14 | approximately 15% | (7.29) h | 1.18 | 4.01 | 4.25666 | 4.67237 | 11.29 | 0.55418 | 9.66 | < 0.80 | < 0.80 | lower bound of 90% confidence interval for ratio of central values, Cmax [4]: < 0.80; AUCt, Point Estimate (ratio of central values) vs. Regimen A [4]: 0.8288; AUC∞, Point Estimate (ratio of central values) vs. Regimen A [4]: 0.8456; Cmax, Point Estimate (ratio of central values) vs. Regimen A [4]: 0.8456
